We go through three sequences from PMC11814485, “Screening of homing and tissue-penetrating peptides by microdialysis and in vivo phage display” (Life Science Alliance, 2025).

One assay concerns skin wounds. Put plainly: Homing of systemically administered FAM-peptides to mouse skin excision wounds and normal organs (anti-FAM staining, QuPath). Type of assay: in vivo, mouse (BALB/cJRj). The settings on record: for localisation in skin wound / accumulation in normal organs: tail vein, 150 min; for localisation in skin wound: anti-FAM and anti-CD31 staining; for accumulation in normal organs: normal skin, heart, liver, lung, spleen, kidney, anti-FAM staining. As to the method: We next studied homing of systemically administered CDD, CPK, and CYH peptides in mouse skin excision wounds at the peak of neovascularization, 7 d after wounding. The peptides were injected into the tail vein and allowed to circulate for 2.5 h. The systemically administered peptides were detected in the granulation tissue of the wounds outside of the blood vessels (Figs 2 and S4). […] In contrast, the peptides were undetectable in normal skin (Fig S5A), heart, liver, lung, and spleen (Fig S5B), except for strong signal related to peptide secretion from the kidney glomeruli (Fig S5B).
Figure 2. Microdialysis-captured peptides home to skin wounds and localize in granulation tissue. […] Six-mm-diameter full-thickness wounds were cut in the back skin of 8-wk-old male mice. After 7 d, the peptides or PBS was injected systemically (tail vein). The peptides were allowed to circulate for 150 min before the vasculature was thoroughly perfused. The wound tissue was fixed, and microscopic sections were stained with anti-FAM and hematoxylin. (A, B) Magnifications of areas marked in panel (A) are represented in panel (B) with adjacent sections stained with anti-CD31 to visualize the blood vessels. The scale bar is 500 μm for panel (A) and 125 μm for panel (B). Images are representative of two separate experiments, four mice in each peptide group.
Figure 3. Microdialysis-captured peptides home to skin wounds and penetrate blood–retina barrier in retinopathy. Systemically administered homing peptides CDD, CPK, and CYH accumulate in skin wounds and penetrate blood–retina barrier in retinopathy. Full-thickness wounds, 6 mm in diameter, in the back skin of 8-wk-old male mice were used. After 7 d, each peptide or PBS was injected into the tail vein. For retinopathy experiments, oxygen-induced retinopathy (OIR) was induced by placing mouse pups at day P7 in a hyperoxia chamber for 5 d. On P17, when the angiogenesis peaks in this OIR model, the peptides were injected into the tail vein. The peptides circulated for 150 min (wounds) and 120 min (OIR) before the vasculature was thoroughly perfused. The skin wounds and eyeballs were fixed, and histological samples stained with anti-FAM and hematoxylin. Peptide homing was quantified with the automated image analysis system. (A) Microdialysis-identified peptides home to skin wounds. […] (D) All three microdialysis-identified peptides also accumulate substantially in the vitreous in the OIR model. *P < 0.05, **P < 0.01, ***< 0.001. Each datapoint represents an individual wound, retina, or vitreous. N = 3 for skin wound, and N = 6 and N = 8 for normal and OIR retinas.
Male BALB/cJRj and diabetic male BKS(D)-Lepr^db/JOrlRj mice were used for the peptide homing experiment. The BALB/cJRj mice were 8 wk old and weighed 24–28 g. The BKS(D)-Lepr^db/JOrlRj mice were 14 wk old and weighed 45–58 g, and their blood sugar levels were over 33 mmol/liter. Four full-thickness circular wounds were created on a shaved and disinfected skin with a 6-mm-diameter biopsy punch and scissors under isoflurane anesthesia (Attane vet 1,000 mg/g; Piramal Critical Care B.V.) and buprenorphine analgesia (0.15 mg/kg; Vetergesic vet 0.3 mg/ml; Ceva Santé Animal). Seven days after the wounding, the homing experiment was performed. The animal use was accepted by the National Animal Ethics Committee of Finland on 12 September 2017 (ESAVI/6422/04.10.07/2017) and on 4 January 2022 (ESAVI/39175/2021).
BALB/cJRj and diabetic male BKS(D)-Lepr^db/JOrlRj mice with 7-d-old skin wounds were used for the peptide homing experiment. FAM-labeled peptides were dissolved in the PBS just before the experiment. 5 mg/kg (BALB/cJRj) or 1,5 mg/kg (BKS(D)-Lepr^db/JOrlRj) of each peptide (CAR, CDD, CPK, CYH, and a control peptide) in PBS or plain PBS (control) was injected on the tail vein under sevoflurane anesthesia. […]

In another assay the test system is diabetic skin wounds. Description: Homing of FAM-peptides to skin wounds in diabetic mice. The note with it: 1.5 mg/kg systemically, 150 min, day 7 wound, anti-FAM staining, one animal with two wounds per group. Type of assay: in vivo, mouse (BKS(D)-Lepr^db/JOrlRj). The source says:
Next, we wanted to study the utility of the newly identified peptides as vehicles for targeting diabetic skin wounds. Compromised angiogenesis in diabetic wounds leads to deficient granulation tissue formation and poses an important hindrance to systemic drug delivery. BALB/cJRj and diabetic male BKS(D)-Lepr^db/JOrlRj mice were wounded and systemically dosed with fluorophore-labeled peptides 7 d after the skin wounding. For all tested peptides, we observed peptide accumulation in the granulation tissue where angiogenesis takes place (Fig S6).
Figure S6. Microdialysis-captured peptides home to skin wounds in diabetic mice. […] Full-thickness wounds 6 mm in diameter were cut in the back skin of 14-wk-old male diabetic mice. After 7 d, 1.5 mg/kg of each peptide or PBS was injected systemically. The CAR peptide was used as a control. The peptide circulated for 150 min before the vasculature was perfused. The wounds were fixed with 4% PFA in PBS, and microscopic sections were stained with anti-FAM and hematoxylin. (A) Images of entire wounds. (B) Magnifications of areas marked in (A) with anti-CD31 staining of the adjacent sections. (A, B) Scale bars are 500 μm for (A) and 125 μm for (B). Images are representative of one animal with two wounds in each group.
Male BALB/cJRj and diabetic male BKS(D)-Lepr^db/JOrlRj mice were used for the peptide homing experiment. The BALB/cJRj mice were 8 wk old and weighed 24–28 g. […]
After 24-h (or 4 h for eyeballs) fixation in 4% PFA, the tissues were rinsed in 70% EtOH and embedded in paraffin. To avoid autofluorescence, the peptides were detected by staining the sections with rabbit anti-FITC/-FAM (71-1900; Thermo Fisher Scientific, 1:400 BALB/cJRj and C57BL/6Rj or 1:100 BKS(D)-Lepr^db/JOrlRj) in Dako antibody diluent (Agilent) and Biocare Medical Rabbit on Rodent (RMR622H; Biocare Medical) with XM-Factor (XMF963C; Biocare Medical) as described previously ([Robinson et al, 2010]; [Urakami et al, 2011]; [Toba et al, 2014]; [Pemmari, et al, 2020b]). […]

On to “CDDYQQISC [FAM-labeled synthetic peptide …]”, for which the “accumulation in skin wounds relative to a control” value in the assay with skin wounds (mouse day 7 wound, 5 mg/kg tail vein, 150 min circulation, anti-FAM positive area, N = 3) was found to be 12 fold. Moreover, the “localisation in skin wound” value in the assay on skin wounds (mouse day 7 wound) was “accumulated in wound regions containing blood vessels and in surrounding extravascular granulation tissue”. In addition, in the assay on skin wounds, the “accumulation in normal organs” value is reported as “do not accumulate in normal, healthy organs except in the kidneys”. Also, the “homing to skin wounds in diabetic mice” value with diabetic skin wounds is “home and penetrate to the granulation tissue”.
On to “CPKKHHLDC [FAM-labeled synthetic peptide …]”, for which the “localisation in skin wound” value with skin wounds (mouse day 7 wound) is “accumulated in wound regions containing blood vessels and in surrounding extravascular granulation tissue”. Besides, the “accumulation in normal organs” value with skin wounds is listed as “do not accumulate in normal, healthy organs except in the kidneys”. In the assay with diabetic skin wounds, the “homing to skin wounds in diabetic mice” value is “home and penetrate to the granulation tissue”.
With “CYHDTYPNC [FAM-labeled synthetic peptide …]”, the “localisation in skin wound” value in the assay on skin wounds (mouse day 7 wound) was “accumulated in wound regions containing blood vessels and in surrounding extravascular granulation tissue”. For the same sequence, the “accumulation in normal organs” value in the assay with skin wounds was “do not accumulate in normal, healthy organs except in the kidneys”. Also, in the assay on diabetic skin wounds, the “homing to skin wounds in diabetic mice” value was “home and penetrate to the granulation tissue”.
